The numbers were not newly measured in patent EP3292864A1, “MODIFIED RELEASE TABLET COMPOSITION COMPRISING MIRABEGRON” (Synthon B.V., priority 2017, dated 2018), which cites them from elsewhere.

For the compound `Nc1nc(CC(=O)Nc2ccc(CCNC[C@H](O)c3ccccc3)cc2)cs1` [Mirabegron, (R)-2-(2-aminothiazol-4-yl)-4'-[2-[(2-hydroxy-2-phenylethyl)amino]ethyl]acetic acid anilide], the solubility in water entry (assessment report of Betmiga® published by the European Medicines Agency) was “soluble in water between neutral to acidic pH”. Also, the solubility result (per BCS class) was “high solubility”.
